According to patent publication US7449197B2, “Liposome formulation of 6,9-bis[(2-aminoethyl)-amino]benzo[g]isoquinoline-5, 10-dione dimaleate” (Cell Therapeutics Europe S.r.l., priority 1999, dated 2008):
Marks after values point to notes of the source that are not given here.

Assays:
P388 murine leukemia = assay: Antitumor activity against P388 murine leukemia in mice (survival time, T/C %); assay type: in vivo
Method: Animals: mice were provided by Charles River Breeding Laboratories (Calco, Como, Italy); they were male mice of 6-8 weeks under standard housing conditions. Formulations: BBR 2778 dissolved and diluted in sterile water just before administration of 10 mg/kg to mice was used as reference. The liposome formulation of Example 4 was used. Tumor model: P388 murine leukemia, provided by NCI Frederick Cancer Facility (USA) is maintained through a series of intraperitoneal transplants in DBA2 mice. Mice were transplanted with 10^6 cells/mouse of P388 leukemia, the liposome compound and the reference standard were administered i.v. at days 1, 4, 7 after tumor transplant. The antitumor activity was determined as percent increase in the survival time of mice, expressed by the T/C % ratio of the mean survival time (TMS) of the treated group (T) to the mean survival time of the control group (C): […]

CD1 mice = assay type: in vivo; settings: 40 or 60 mg/kg i.v. bolus
mice = settings: male, mouse, in vivo, iv, 40 mg/kg
Method: The liposome formulations according to the invention were tested in vivo for the antitumor activity and toxicity. […] In particular, the inhibitory activity on sudden deaths was evaluated compared with the control group, which was administered with a formulation of the free drug.

NCCNc1ccc(NCCN)c2c1C(=O)c1ccncc1C2=O.O=C(O)/C=C\C(=O)O [BBR 2778 solution, 6,9-bis-[(2-aminoethyl)amino]benzo[g]isoquinoline-5,10-dione dimaleate]
T/C % (P388 murine leukemia; 18 mg/kg/day i.v. at days 1, 4, 7 after tumor transplant): 199** % | T/C % (P388 murine leukemia; 27 mg/kg/day i.v. at days 1, 4, 7 after tumor transplant): 226** % | T/C % (P388 murine leukemia; 40 mg/kg/day i.v. at days 1, 4, 7 after tumor transplant, dimaleate): 159** % | T/C % (P388 murine leukemia; 40 mg/kg/day i.v. at days 1, 4, 7 after tumor transplant, listed as BBR 2778 in solution, dimaleate): 159% | T/C % (P388 murine leukemia; 60 mg/kg/day i.v. at days 1, 4, 7 after tumor transplant): 36** % | death during or immediately after treatment (CD1 mice): death of some animals is observed | toxicity (percent toxic deaths) (mice): 60.4%
